According to patent publication US11667652B2, “MCL1 inhibitors” (Gilead Sciences, Inc., priority 2019, dated 2023):
Like-named read-outs stand apart in the source and are kept apart here.

Columns and labels:
[1] = target: MCL1/Bim (Homo sapiens (Human), UniProt Q07820); assay: MCL1/Bim Binding AlphaLISA Assay; details: recombinant human 6xHis-MCL1 (171-327), biotinylated Bim peptide (51-76)
Method in brief: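 AlphaLISA with 0.0625 nM human 6×His-MCL1 (171-327) and 0.0625 nM biotinylated Bim (51-76) peptide in 20 mM Hepes pH 7.5, 150 mM NaCl, 0.002% Brij 35, 1 mM DTT, 0.01% BSA. Compound preincubated with MCL1 1 h, Bim added 2 h, then acceptor and donor beads 1 h each; % inhibition versus DMSO and no-protein/peptide controls.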

[2] = system: SKBR3 cells; assay: SKBR3 Cell Viability Assay; assay type: cell-based; details: CellTiter Glo, read-out: MCL1 CV SKBR3 EC50
Method in brief: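 SKBR3 cells (6,000/well, McCoy's 5A + 10% FBS) were added onto pre-spotted serial compound dilutions and incubated 72 h at 37° C, 5% CO2. Viability was read by CellTiter-Glo luminescence, with % inhibition normalised to DMSO (negative) and 10 μM puromycin (positive).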

[3] = Homo sapiens, SK-BR-3, 72 hours

Chain of MCL1/Bim (Q07820 171-327): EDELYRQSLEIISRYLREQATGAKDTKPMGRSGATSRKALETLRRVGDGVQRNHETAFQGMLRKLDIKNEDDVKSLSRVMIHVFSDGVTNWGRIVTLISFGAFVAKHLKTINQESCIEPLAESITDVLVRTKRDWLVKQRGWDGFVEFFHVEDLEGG

SMILES	IC50 [1] [nM]	EC50 [2, 3] [nM]	EC50 ([2]; 72 hours) [nM]
CO[C@H]1/C=C/CCC[S@@](=O)(NC(=O)c2cnn(C)c2)=NC(=O)c2ccc3c(c2)N(C[C@@H]2CC[C@H]21)C[C@]1(CO3)C[C@@H]2C[C@@H]2c2cc(Cl)ccc21 [Example 173]	0.1	310	
COc1nn(C)cc1C(=O)N[S@@]1(=O)=NC(=O)c2ccc3c(c2)N(C[C@@H]2CC[C@H]2[C@@H](OCCN2CCC(OC)CC2)/C=C/C[C@H](C)C1)C[C@@]1(CCCc2cc(Cl)ccc21)CO3 [Example 63]	0.034	25.2	
COc1nn(C)cc1C(=O)N[S@@]1(=O)=NC(=O)c2ccc3c(c2)N(C[C@@H]2CC[C@H]2/C=C/CC[C@H](C)C1)C[C@@]1(CCCc2cc(Cl)ccc21)CO3 (mixture of isomers) [Example 129]	0.142		1210
CO[C@H]1/C=C/CCC[S@@](=O)(NC(=O)c2cc3n(c2)CCOC3)=NC(=O)c2ccc3c(c2)N(C[C@@H]2CC[C@H]21)C[C@]1(CO3)C[C@@H]2C[C@@H]2c2cc(Cl)ccc21 [Example 174]	0.25	354	
COc1nn(C)cc1C(=O)N[S@@]1(=O)=NC(=O)c2ccc3c(c2)N(C[C@@H]2CC[C@H]2[C@H]2OC(O)C[C@@H]2CC[C@H](C)C1)C[C@@]1(CCCc2cc(Cl)ccc21)CC3 (mixture of isomers) [Example 150]	0.035	114	
CC[C@H]1C/C=C/[C@H](OC)[C@@H]2CC[C@H]2CN2C[C@@]3(CCCc4cc(Cl)ccc43)COc3ccc(cc32)C(=O)N=[S@](=O)(NC(=O)NC2CC2)C1 [Example 42]	0.253		233
CO[C@H]1/C=C/C[C@H](C)[C@@H](C)[S@@](=O)(NC(=O)c2cnn(C)c2)=NC(=O)c2ccc3c(n2)N(C[C@@H]2CC[C@H]21)C[C@]1(CO3)C[C@@H]2C[C@@H]2c2cc(Cl)ccc21 [Example 205]	0.06	81.3	
COc1nn(C)cc1C(=O)N[S@@]1(=O)=NC(=O)c2ccc3c(c2)N(C[C@@H]2CC[C@H]2[C@@H](OC)C[C@H]2CC(O)O[C@@H]2[C@H](C)C1)C[C@@]1(CCCc2cc(Cl)ccc21)CO3 (stereo partly drawn) [Example 139]	0.071	198	
COc1nn(C)cc1C(=O)N[S@@]1(=O)=NC(=O)c2ccc3c(c2)N(C[C@@H]2CC[C@H]2[C@@H](OC)/C=C/[C@H](Oc2ccccn2)[C@H](C)C1)C[C@@]1(CCCc2cc(Cl)ccc21)CO3 [Example 77]	0.905	477	
COc1ccc2c(N[S@@]3(=O)=NC(=O)c4ccc5c(c4)N(C[C@@H]4CC[C@H]4[C@@H](OC)/C=C/C[C@H](C)C3)C[C@@]3(CCCc4cc(Cl)ccc43)CO5)ncnc2c1 [Example 21]	0.156	882	
C[C@H]1C/C=C/[C@H](O)[C@@H]2CC[C@H]2CN2C[C@@]3(CCCc4cc(Cl)ccc43)COc3ccc(cc32)C(=O)N=[S@](=O)(Nc2nc(N3CCOCC3)nc3nn(C)cc23)C1 [Example 33]	0.019	30.1	
COc1nn(C)cc1C(=O)N[S@@]1(=O)=NC(=O)c2ccc3c(c2)N(C[C@@H]2CC[C@H]2[C@@H](OC)/C=C/[C@@H](OC)[C@H](C)[C@H]1C)C[C@@]1(CCCc2cc(Cl)ccc21)CO3 [Example 69]	2.07		1000
CO[C@H]1/C=C/C[C@H](C)C[S@@](=O)(Nc2cnccn2)=NC(=O)c2ccc3c(c2)N(C[C@@H]2CC[C@H]21)C[C@@]1(CCCc2cc(Cl)ccc21)CO3 [Example 1]	0.221	1390	
CO[C@H]1/C=C/C[C@H](C)C[S@@](=O)(Nc2nc(NCCN3CCOCC3)nc3nn(C)cc23)=NC(=O)c2ccc3c(c2)N(C[C@@H]2CC[C@H]21)C[C@@]1(CCCc2cc(Cl)ccc21)CO3 [Example 20]	0.313	41.3	
COc1nn(C)cc1C(=O)N[S@@]1(=O)=NC(=O)c2ccc3c(c2)N(C[C@@H]2CC[C@H]2[C@@H](OC)/C=C/[C@H](NC(C)=O)[C@H](C)C1)C[C@@]1(CCCc2cc(Cl)ccc21)CO3 [Example 118]	0.634		2520
CO[C@H]1/C=C/C[C@H](C)[C@@H](C)[S@@](=O)(NC(=O)c2cc3n(c2)CCOC3)=NC(=O)c2ccc3c(n2)N(C[C@@H]2CC[C@H]21)C[C@]1(CO3)C[C@@H]2C[C@@H]2c2cc(Cl)ccc21 [Example 206]	0.23	142	
CO[C@H]1/C=C/C[C@H](C)C[S@@](=O)(NC(=O)c2cn(C)c(=O)n2C)=NC(=O)c2ccc3c(c2)N(C[C@@H]2CC[C@H]21)C[C@@]1(CCCc2cc(Cl)ccc21)CO3 [Example 208]	0.13	140	
COc1nn(C)cc1C(=O)N[S@@]1(=O)=NC(=O)c2ccc3c(c2)N(C[C@@H]2CC[C@H]2[C@@H](OC)C[C@H]2CCO[C@@H]2[C@H](C)C1)C[C@@]1(CCCc2cc(Cl)ccc21)CO3 [Example 135]	0.057	92.2	

SMILES	IC50 [1] [nM]	EC50 [2, 3] [nM]	EC50 ([2]; 72 hours) [nM]
COc1nn(C)cc1C(=O)N[S@@]1(=O)=NC(=O)c2ccc3c(n2)N(C[C@@H]2CC[C@H]2[C@@H](OC)/C=C/[C@@H](OC)[C@H](C)C1)C[C@@]1(CCCc2cc(Cl)ccc21)CO3 [Example 197]	0.35		516
COCCOCCOCCO[C@H]1/C=C/[C@H](OC)[C@@H]2CC[C@H]2CN2C[C@@]3(CCCc4cc(Cl)ccc43)COc3ccc(cc32)C(=O)N=[S@](=O)(NC(=O)c2cn(C)nc2OC)C[C@H]1C [Example 76]	0.048	24.1	
CO[C@H]1/C=C/[C@H](OC)CC[S@@](=O)(Nc2ncnc3nn(C)cc23)=NC(=O)c2ccc3c(c2)N(C[C@@H]2CC[C@H]21)C[C@@]1(CCCc2cc(Cl)ccc21)CO3 [Example 71]	0.894		192
COc1nn(C)cc1C(=O)N[S@@]1(=O)=NC(=O)c2ccc3c(n2)N(C[C@@H]2CC[C@H]2[C@@H](OC)/C=C\C[C@H](C)C1)C[C@@]1(CCCc2cc(Cl)ccc21)CO3 [Example 192]	0.03		136
COc1nn(C)cc1C(=O)N[S@@]1(=O)=NC(=O)c2ccc3c(c2)N(C[C@@H]2CC[C@H]2[C@@H](OC)/C=C/[C@H](OC(C)=O)[C@H](C)[C@H]1C)C[C@@]1(CCCc2cc(Cl)ccc21)CO3 [Example 91]	0.177		88.4
COc1nn(C)cc1C(=O)N[S@@]1(=O)=NC(=O)c2ccc3c(c2)N(C[C@@H]2CC[C@H]2C(=O)/C=C/C[C@H](C)[C@H]1C)C[C@@]1(CCCc2cc(Cl)ccc21)CO3 [Example 48]	0.693		173
COc1nn(C)cc1C(=O)N[S@@]1(=O)=NC(=O)c2ccc3c(c2)N(C[C@@H]2CC[C@H]2[C@@](O)(CC(=O)N2CCOCC2)/C=C/C[C@H](C)C1)C[C@@]1(CCCc2cc(Cl)ccc21)CO3 [Example 98]	0.031		73.3
C[C@H]1C/C=C/[C@H](O)[C@@H]2CC[C@H]2CN2C[C@@]3(CCCc4cc(Cl)ccc43)COc3ccc(cc32)C(=O)N=[S@](=O)(Nc2nc3nnnn3c3nn(C)cc23)C1 (mixture of isomers) [Example 31]	0.064	4390	
COc1nn(C)cc1C(=O)N[S@@]1(=O)=NC(=O)c2ccc3c(c2)N(C[C@@H]2CC[C@H]2[C@@H](OCCN2CC(N(C)C)C2)/C=C/C[C@H](C)C1)C[C@@]1(CCCc2cc(Cl)ccc21)CO3 [Example 58]	0.098		38.3
COc1nn(C)cc1C(=O)N[S@@]1(=O)=NC(=O)c2ccc3c(c2)N(C[C@@H]2CC[C@H]2[C@H](OC)/C=C/[C@H](OC(C)=O)[C@H](C)[C@H]1C)C[C@@]1(CCCc2cc(Cl)ccc21)CO3 [Example 92]	2.59		796
CO[C@H]1/C=C/CCC[S@@](=O)(NC(=O)c2cc3n(c2)CCOC3)=NC(=O)c2ccc3c(c2)N(C[C@@H]2CC[C@H]21)C[C@]1(CO3)SCCc2cc(Cl)ccc21 [Example 184]	0.26	262	
CO[C@H]1/C=C/C[C@H](C)[C@@H](C)[S@@](=O)(NC(=O)COC2CCOCC2)=NC(=O)c2ccc3c(c2)N(C[C@@H]2CC[C@H]21)C[C@]1(CO3)C[C@@H]2C[C@@H]2c2cc(Cl)ccc21 [Example 169]	0.048	215	
CO[C@H]1/C=C/C[C@H](C)C[S@@](=O)(NC(=O)NC2CC2)=NC(=O)c2ccc3c(n2)N(C[C@@H]2CC[C@H]21)C[C@@]1(CCCc2cc(Cl)ccc21)CO3 [Example 187]	0.04	47.8	
COc1nn(C)cc1C(=O)N[S@@]1(=O)=NC(=O)c2ccc3c(c2)N(C[C@@H]2CC[C@H]2/C=C/[C@H]2OCCO[C@@H]2[C@H](C)C1)C[C@@]1(CCCc2cc(Cl)ccc21)CO3 [Example 154]	0.321		1470
CCn1ccc(OC[C@H]2C/C=C/[C@H](OC)[C@@H]3CC[C@H]3CN3C[C@@]4(CCCc5cc(Cl)ccc54)COc4ccc(cc43)C(=O)N=[S@@](=O)(NC(=O)COC3CCOCC3)C2)n1 [Example 46]	0.521		1600
COc1nn(C)cc1C(=O)N[S@@]1(=O)=NC(=O)c2ccc3c(c2)N(C[C@@H]2CC[C@H]2[C@H]2OCCCC2CC[C@H](C)C1)C[C@@]1(CCCc2cc(Cl)ccc21)CO3 (mixture of isomers) [Example 138]	1.54		1050
COCC#Cc1nn(C)cc1C(=O)N[S@@]1(=O)=NC(=O)c2ccc3c(c2)N(C[C@@H]2CC[C@H]2[C@@H](OC)/C=C/C[C@H](C)C1)C[C@@]1(CCCc2cc(Cl)ccc21)CO3 [Example 210]	0.05	109	
CO[C@H]1/C=C/C[C@H](C)C[S@@](=O)(NC(=O)c2cc(C(=O)N3CCOCC3)n(C)c2)=NC(=O)c2ccc3c(c2)N(C[C@@H]2CC[C@H]21)C[C@@]1(CCCc2cc(Cl)ccc21)CO3 [Example 207]	0.08	87.7	
